Assays:
[1] = target: E3 ubiquitin ligase CRBN (Homo sapiens (Human), UniProt Q96SW2); assay: CRBN binding activity, HTRF competition with Thalidomide-Red (CEREBLON BINDING KIT); settings: competition with XL665-labelled thalidomide, 3 hours room temperature
Procedure: From this, the binding force of the compounds to the CRBN protein was determined.
CRBN binding activity test kit (CEREBLON BINDING KITS (PE, 64BDCRBNPEG).
The detection is based on homogeneous time-resolved fluorescence (HTRF) technology.
The donor used in this kit was Europium-labeled GST antibody (GST Eu Cryptate Antibody), and the acceptor was thalidomide labeled with XL665 (Thalidomide-Red reagent). The donor binded to the CRBN protein containing the GST tag.
The donor and acceptor were diluted 50 times using the binding buffer from the kit (PROTAC binding buffer 1). The CRBN protein was diluted 45 times. The disclosed compound solution at 8 mM was diluted 10 times with the diluent from the kit (1× diluent), followed by a five-fold gradient dilution, performed 7 times sequentially.
Incubate at room temperature for 3 hours.
The ratio of the emission signals from the acceptor and donor in each individual well is calculated.
The coefficient of variation (CV)=standard deviation (SD)/mean Ratio*100
Using GraphPad Prism, IC50 values were calculated based on compound concentration, Ratio and coefficient of variation.

[2] = test system: MV-4-11 cells; assay: MV-4-11 cell proliferation inhibition, CCK-8; assay type: cell-based; settings: Homo sapiens, MV4-11, 96 h, MV-4-11, 4 days, Table 8, positive control Ibrutinib
Procedure, shortened: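 MV-4-11 cells (7,500/well) in IMDM with 10% FBS were exposed to graded compound concentrations for 4 days at 37 °C, 5% CO2. Viability was measured with CCK-8, and IC50 values were derived from inhibition rates.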

[3] = test system: Z138 cells; assay: Z138 cell proliferation inhibition, CCK-8; assay type: cell-based; settings: Homo sapiens, Z-138, 96 h, Z138, 4 days
Procedure: The complete medium required for Z138 cells is IMDM (ATCC, Product number: 30-2005) basal medium containing 10% horse serum. Z138 cells were seeded in a 96-well plate at a density of 10,000 cells/well, and different concentrations of the compound of the present invention and a positive control sample Ibrutinib (source: Bide Pharmaceuticals) were prepared to treat the cells. The cells were incubated in a 37° C., 5% CO2 cell incubator for 4 days. Cell viability was detected using the CCK-8 kit (Beyotime, Product number: C0040) according to the manufacturer's instructions. According to the inhibition rate, the GraphPad Prism software was used to calculate the IC50 value of each compound for 4 days, and the results are shown in Table 14.

[4] = test system: NCI-H358 cells; assay: NCI-H358 cell proliferation inhibition, CCK-8; assay type: cell-based; settings: Homo sapiens, 96 h, NCI-H358, 4 days
Procedure: The complete medium required for NCI-H358 cells is RPMI1640 (ATCC, Product number: 30-2001) basal medium containing 10% fetal bovine serum. NCI-H358 cells were seeded in a 96-well plate at a density of 2,800 cells/well, and the next day, different concentrations of the compounds of the present invention were prepared to treat the cells, and the cells were treated for 4 days in a 37° C., 5% CO2 cell culture incubator. Cell viability was detected using a CCK-8 kit (Beyotime, Product number: C0040) according to the manufacturer's instructions. According to the inhibition rate, the GraphPad Prism software was used to calculate the IC50 value of each compound for 4 days, and the results are shown in Table 5.

[5] = test system: JeKo-1 cells; assay: JeKo-1 cell proliferation inhibition, CCK-8; assay type: cell-based; settings: Homo sapiens, 96 h, JeKo-1, 4 days
Procedure: The complete medium required for JeKo-1 cells is RPMI1640 (ATCC, Product number: 30-2001) basal medium containing 20% fetal bovine serum. The JeKo-1 cells were seeded in a 96-well plate at a density of 10,000 cells/well, and different concentrations of the compounds of the present invention were prepared to treat the cells at the same time. The cells were incubated at a 37° C., 5% CO2 cell culture incubator for 4 days. Cell viability was detected using the CCK-8 kit (Beyotime, Product number: C0040) according to the manufacturer's instructions. According to the inhibition rate, the GraphPad Prism software was used to calculate the IC50 value of each compound for 4 days, and the results are shown in Table 13.

| SMILES | IC50 [1] [µM] | IC50 [4] [µM] | IC50 [3] [µM] | further results |
| --- | --- | --- | --- | --- |
| O=C1CCC(N2Cc3cc4c(cc3C2=O)CCC2(CCNCC2)O4)C(=O)N1 (centres unmarked) [Compound12, 3-(6′-oxo-3′,4′,6′,8′-tetrahydro-7′H-spiro[piperidine-4,2′-pyrano[2,3-f]isoindole]-7′-yl)piperidine-2,6-dione] | 3 |  |  |  |
| O=C1CCC(N2C(=O)c3cc4c(cc3C2=O)C2(CCNCC2)CO4)C(=O)N1 (centres unmarked) [Compound17, 6-(2,6-dioxopiperidin-3-yl)-6-hydro-2H, 5H-spiro[[2,3-f]isoindole-3,4′-piperidin]-5,7-dione] | 15.2 |  |  |  |
| O=C1CCC(N2C(=O)c3ccc4c(c3C2=O)C2(CCNCC2)CO4)C(=O)N1 (centres unmarked) [Compound27, 2-(2,6-dioxopiperidin-3-yl)-2-hydro-1H,7H-spiro[furo[3,2-e]isoindole-8,4′-piperidine]-1,3-dione] | 36.4 |  |  |  |
| C=CC(=O)N1CCC[C@@H](n2nc(-c3ccc(Oc4ccccc4)cc3)c3c(N)ncnc32)C1 [Ibrutinib, reference compound] |  |  | 21.1 | IC50 [2]: 0.077 µM |
| Nc1ncnc2c1c(-c1ccc(Oc3ccccc3)cc1)nn2[C@@H]1CCCN(CCOCCC(=O)N2CCC3(CCc4cc5c(cc4O3)C(=O)N(C3CCC(=O)NC3=O)C5=O)CC2)C1 (stereo partly drawn) [PROTAC 32, 1-(3-(2-((R)-3-(4-amino-3-(4-phenoxyphenyl)-1H-pyrazolo[3,4-d]pyrimidin-1-yl)piperidin-1-yl)ethoxy)propionyl)-7′-(2,6-dioxopiperidin-3-yl)-3′,4′-dihydro-6′H-spiro[piperidin-4,2′-pyrano[2,3-f]isoindole]-6′,8′(7′H)-dione] |  |  | 16 | IC50 [5]: 18.4 µM |
| Nc1ncnc2c1c(-c1ccc(Oc3ccccc3)cc1)nn2[C@@H]1CCCN(CCOCCC(=O)N2CC3(CCc4cc5c(cc4O3)C(=O)N(C3CCC(=O)NC3=O)C5=O)C2)C1 (stereo partly drawn) [PROTAC 33, 1-(3-(2-((R)-3-(4-amino-3-(4-phenoxyphenyl)-1H-pyrazolo[3,4-d]pyrimidin-1-yl)piperidin-1-yl)ethoxy)propionyl)-7′-(2,6-dioxopiperidin-3-yl)-3′,4′-dihydro-6′H-spiro[azetidine-3,2′-pyrano[2,3-f]isoindole]-6′,8′(7′H)-dione] |  |  | 34.9 | IC50 [5]: 63.8 µM |
| Nc1ncnc2c1c(-c1ccc(Oc3ccccc3)cc1)nn2[C@@H]1CCCN(CCOCCC(=O)N2CCC3(CC2)COc2cc4c(cc2C3)C(=O)N(C2CCC(=O)NC2=O)C4=O)C1 (stereo partly drawn) [PROTAC 34, 1-(3-(2-((R)-3-(4-amino-3-(4-phenoxyphenyl)-1H-pyrazolo[3,4-d]pyrimidin-1-yl)piperidin-1-yl)ethoxy)propionyl)-7′-(2,6-dioxopiperidin-3-yl)-2′H-spiro[piperidine-4,3′-pyrano[2,3-f]isoindole]-6′,8′(4′H,7′H)-dione] |  |  | 13.9 |  |
| Nc1ncnc2c1c(-c1ccc(Oc3ccccc3)cc1)nn2[C@@H]1CCCN(CCOCCC(=O)N2CCC3(CCc4cc5c(cc4O3)CN(C3CCC(=O)NC3=O)C5=O)CC2)C1 (stereo partly drawn) [PROTAC 35, 3-(1-(3-(2-((R)-3-(4-amino-3-(4-phenoxyphenyl)-1H-pyrazolo[3,4-d]pyrimidine-1-yl)piperidin-1-yl)ethoxy)propionyl)-6′-oxo-3′,4′,6′,8′-tetrahydro-7′H-spiro[piperidine-4, 2′-pyrano[2,3-f]isoindol]-7′-yl)piperidine-2,6-dione] |  |  | 22.6 | IC50 [5]: 19.1 µM |

The next lines start with results.

| IC50 [1] [µM] | IC50 [4] [µM] | SMILES | IC50 [3] [µM] | further results |
| --- | --- | --- | --- | --- |
| 3.9 |  | O=C1CCC(N2Cc3cc4c(cc3C2=O)CCC2(CNC2)O4)C(=O)N1 (centres unmarked) [Compound13, 3-(6′-oxo-3′,4′,6′,8′-tetrahydro-7′H-spiro[azetidine-3,2′-pyrano[2,3-f]isoindole]-7′-yl)piperidine-2,6-dione] |  |  |
| 1.2 |  | O=C1CCC(N2Cc3cc4c(cc3C2=O)OCC2(CCNCC2)O4)C(=O)N1 (centres unmarked) [Compound16, 3-(6′-oxo-6′,8′-dihydro-3′H,7′H-spiro[piperidine-4,2′-[1,4]dioxino[2,3-f]isoindole]-7′-yl)piperidine-2,6-dione] |  |  |
|  | 16.8 | COc1cc2ncnc(Nc3ccc(F)c(Cl)c3)c2cc1OCCCN1CCN(CCOCCC(=O)N2CCC3(CCc4cc5c(cc4O3)C(=O)N(C3CCC(=O)NC3=O)C5)CC2)CC1 (centres unmarked) [PROTAC 17, 3-(1-(3-(2-(4-(3-((4-((3-chloro-4-fluorophenyl)amino)-7-methoxyquinazolin-6-yl)oxy)propyl)piperazin-1-yl)ethoxy)propionyl)-8′-oxo-3′,4′,6′,8′-tetrahydro-7′H-spiro[piperidine-4,2′-pyrano[2,3-f]isoindole]-7′-yl)piperidine-2,6-dione] |  |  |
|  | 42.6 | COc1cc2ncnc(Nc3ccc(F)c(Cl)c3)c2cc1OCCCN1CCN(CCOCCC(=O)N2CCC3(CC2)COc2cc4c(cc2O3)CN(C2CCC(=O)NC2=O)C4=O)CC1 (centres unmarked) [PROTAC 18, 3-(1-(3-(2-(4-(3-((4-((3-chloro-4-fluorophenyl)amino)-7-methoxyquinazolin-6-yl)oxy)propyl)piperazin-1-yl)ethoxy)propionyl)-6′-oxo-6′,8′-dihydro-3′H,7′H-spiro[piperidine-4, 2′-[1,4]dioxino[2,3-f]isoindol]-7′-yl)piperidine-2,6-dione] |  |  |
|  | 23.2 | COc1cc2ncnc(Nc3ccc(F)c(Cl)c3)c2cc1OCCCN1CCN(CCOCCC(=O)N2CCC3(CCc4cc5c(cc4O3)C(=O)N(C3CCC(=O)NC3=O)C5=O)CC2)CC1 (centres unmarked) [PROTAC 21, 1-(3-(2-(4-(3-((4-((3-chloro-4-fluorophenyl)amino)-7-methoxyquinazolin-6-yl)oxy)propyl)piperazin-1-yl)ethoxy)propionyl)-7′-(2,6-dioxopiperidin-3-yl)-3′,4′-dihydro-6′H-spiro[piperidine-4,2′-pyrano[2,3-f]isoindole]-6′,8′(7′H)-dione] |  |  |
|  | 52.1 | COc1cc2ncnc(Nc3ccc(F)c(Cl)c3)c2cc1OCCCN1CCN(CCOCCC(=O)N2CCC3(CC2)COc2cc4c(cc2C3)C(=O)N(C2CCC(=O)NC2=O)C4=O)CC1 (centres unmarked) [PROTAC 22, 1-(3-(2-(4-(3-((4-((3-chloro-4-fluorophenyl)amino)-7-methoxyquinazolin-6-yl)oxy)propyl)piperazin-1-yl)ethoxy)propionyl)-7′-(2,6-dioxopiperidin-3-yl)-2′H-spiro[piperidine-4,3′-pyrano[2,3-f]isoindole]-6′,8′(4′H,7′H)-dione] |  |  |
|  | 71.2 | COc1cc2ncnc(Nc3ccc(F)c(Cl)c3)c2cc1OCCCN1CCN(CCOCCC(=O)N2CC3(CCc4cc5c(cc4O3)C(=O)N(C3CCC(=O)NC3=O)C5=O)C2)CC1 (centres unmarked) [PROTAC 23, 1-(3-(2-(4-(3-((4-((3-chloro-4-fluorophenyl)amino)-7-methoxyquinazolin-6-yl)oxy)propyl)piperazin-1-yl)ethoxy)propionyl)-7′-(2,6-dioxopiperidin-3-yl)-3′,4′-dihydro-6′H-spiro[azetidine-3,2′-pyrano[2,3-f]isomdole]-6′,8′(7′H)-dione] |  |  |
|  | 31.2 | COc1cc2ncnc(Nc3ccc(F)c(Cl)c3)c2cc1OCCCN1CCN(CCOCCC(=O)N2CCC3(CC2)COc2cc4c(cc23)C(=O)N(C2CCC(=O)NC2=O)C4=O)CC1 (centres unmarked) [PROTAC 24, 1′-(3-(2-(4-(3-((4-((3-chloro-4-fluorophenyl)amino)-7-methoxyquinazolin-6-yl)oxy)propyl)piperazin-1-yl)ethoxy)propionyl)-6-(2,6-dioxopiperidin-3-yl)-6-hydro-2H,5H-spiro[furo[2,3-f]isoindole-3,4′-piperdine]-5,7-dione] |  |  |

— patent US20250129088A1, “CEREBLON E3 UBIQUITIN LIGASE INHIBITOR” (Gan & Lee Pharmaceuticals Co., Ltd., priority 2022, published 2025)
